From patent US20120172359A1 (NOVARTIS AG, priority 2010, published 2012)
Where a name gives a salt, the structure may show the parent alone.

The compounds below were run against Human BACE-1 (Homo sapiens, UniProt P56817) (assay: Test 1: Inhibition of Human BACE-1). Conditions: Test 1; recombinant BACE-1 (extracellular domain), acetate buffer pH 4.5, 1 hour with test compound at room temperature, fluorescence-quenched peptide substrate; read-out: Bace IC50.
Format: biochemical

Human BACE-1, sequence (P56817 46-457 limits assumed): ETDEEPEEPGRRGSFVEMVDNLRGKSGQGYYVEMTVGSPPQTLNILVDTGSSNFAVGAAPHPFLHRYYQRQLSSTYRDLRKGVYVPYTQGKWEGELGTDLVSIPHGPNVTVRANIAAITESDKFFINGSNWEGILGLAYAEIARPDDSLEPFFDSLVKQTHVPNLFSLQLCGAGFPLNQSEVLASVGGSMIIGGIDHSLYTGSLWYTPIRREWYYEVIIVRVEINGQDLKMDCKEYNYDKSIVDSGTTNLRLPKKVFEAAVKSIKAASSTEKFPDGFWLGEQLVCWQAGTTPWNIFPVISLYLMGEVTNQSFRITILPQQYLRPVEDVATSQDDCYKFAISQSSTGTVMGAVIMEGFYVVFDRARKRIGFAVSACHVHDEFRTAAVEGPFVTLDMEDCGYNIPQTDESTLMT

| Compound | IC50 [nM] |
| --- | --- |
| NC1=NC(CF)(c2cc(Cl)cc(NC(=O)c3ccc(Br)cn3)c2)COC1 (centres unmarked) [Example 32, 5-Bromo-pyridine-2-carboxylic acid [3-(5-amino-3-fluoromethyl-3,6-dihydro-2H-[1,4]oxazin-3-yl)-5-chloro-phenyl]-amide] | 1400 |
| NC1=N[C@](CF)(c2cccc(NC(=O)c3ccc(Br)cn3)c2)COC1 [Example 33, 5-Bromo-pyridine-2-carboxylic acid [3-((R)-5-amino-3-fluoromethyl-3,6-dihydro-2H-[1,4]oxazin-3-yl)-phenyl]-amide] | 130 |
| NC1=NC(c2cccc(NC(=O)c3ccc(Br)cn3)c2)(C(F)F)COC1 (centres unmarked) [Example 34, 5-Bromo-pyridine-2-carboxylic acid [3-(5-amino-3-difluoromethyl-3,6-dihydro-2H-[1,4]oxazin-3-yl)-phenyl]-amide hydrochloride] | 560 |
| N#Cc1ccc(C(=O)Nc2cccc(C3(C(F)F)COCC(N)=N3)c2)nc1 (centres unmarked) [Example 36, 5-Cyano-pyridine-2-carboxylic acid [3-(5-amino-3-difluoromethyl-3,6-dihydro-2H-[1,4]oxazin-3-yl)-phenyl]-amide] | 350 |
| Cc1cc(Br)cnc1C(=O)Nc1cccc(C2(C(F)F)COCC(N)=N2)c1 (centres unmarked) [Example 37, 5-Bromo-3-methyl-pyridine-2-carboxylic acid [3-(5-amino-3-difluoromethyl-3,6-dihydro-2H-[1,4]oxazin-3-yl)-phenyl]-amide] | 120 |
| NC1=NC(c2cccc(NC(=O)c3ccc(C(F)(F)F)cn3)c2)(C(F)F)COC1 (centres unmarked) [Example 39, 5-Trifluoromethyl-pyridine-2-carboxylic acid [3-(5-amino-3-difluoromethyl-3,6-dihydro-2H-[1,4]oxazin-3-yl)-phenyl]-amide] | 780 |
| NC1=NC(c2cccc(NC(=O)c3ncc(C(F)(F)F)cc3Cl)c2)(C(F)F)COC1 (centres unmarked) [Example 40, 3-Chloro-5-trifluoromethyl-pyridine-2-carboxylic acid [3-(5-amino-3-difluoromethyl-3,6-dihydro-2H-[1,4]oxazin-3-yl)-phenyl]amide] | 1000 |
| Cc1cc(Cl)cnc1C(=O)Nc1cccc(C2(C(F)F)COCC(N)=N2)c1 (centres unmarked) [Example 41, 5-Chloro-3-methyl-pyridine-2-carboxylic acid [3-(5-amino-3-difluoromethyl-3,6-dihydro-2H-[1,4]oxazin-3-yl)-phenyl]-amide] | 350 |
| NC1=NC(c2cc(NC(=O)c3ccc(Br)cn3)ccc2F)(C(F)F)COC1 (centres unmarked) [Example 42, 5-Bromo-pyridine-2-carboxylic acid [3-(5-amino-3-difluoromethyl-3,6-dihydro-2H-[1,4]oxazin-3-yl)-4-fluoro-phenyl]-amide hydrochloride] | 56 |
| NC1=NC(c2cc(NC(=O)c3ccc(Cl)cn3)ccc2F)(C(F)F)COC1 (centres unmarked) [Example 43, 5-Chloro-pyridine-2-carboxylic acid [3-(5-amino-3-difluoromethyl-3,6-dihydro-2H-[1,4]oxazin-3-yl)-4-fluoro-phenyl]-amide] | 62 |
| Cc1cc(Cl)cnc1C(=O)Nc1ccc(F)c([C@]2(C(F)F)COCC(N)=N2)c1 [Example 44, 5-Chloro-3-methyl-pyridine-2-carboxylic acid [3-((R)-5-amino-3-difluoromethyl-3,6-dihydro-2H-[1,4]oxazin-3-yl)-4-fluoro-phenyl]-amide] | 19 |
| Cc1cc(Br)cnc1C(=O)Nc1ccc(F)c([C@]2(C(F)F)COCC(N)=N2)c1 [Example 45, 5-Bromo-3-methyl-pyridine-2-carboxylic acid [3-((R)-5-amino-3-difluoromethyl-3,6-dihydro-2H-[1,4]oxazin-3-yl)-4-fluoro-phenyl]amide] | 16 |
| NC1=N[C@@](c2cc(NC(=O)c3ncc(C(F)(F)F)cc3Cl)ccc2F)(C(F)F)COC1 [Example 46, 3-Chloro-5-trifluoromethyl-pyridine-2-carboxylic acid [3-((R)-5-amino-3-difluoromethyl-3,6-dihydro-2H-[1,4]oxazin-3-yl)-4-fluoro-phenyl]-amide] | 71 |
| NC1=N[C@@](c2cc(NC(=O)c3ccc(C(F)(F)F)cn3)ccc2F)(C(F)F)COC1 [Example 47, 5-Trifluoromethyl-pyridine-2-carboxylic acid [3-((R)-5-amino-3-difluoromethyl-3,6-dihydro-2H-[1,4]oxazin-3-yl)-4-fluoro-phenyl]-amide] | 56 |
| Cc1cnc(C(=O)Nc2ccc(F)c([C@]3(C(F)F)COCC(N)=N3)c2)cn1 [Example 48, 5-Methyl-pyrazine-2-carboxylic acid [3-((R)-5-amino-3-difluoromethyl-3,6-dihydro-2H-[1,4]oxazin-3-yl)-4-fluoro-phenyl]-amide] | 550 |
| COc1ccc(C(=O)Nc2ccc(F)c([C@]3(C(F)F)COCC(N)=N3)c2)nc1 [Example 49, 5-Methoxy-pyridine-2-carboxylic acid [3-((R)-5-amino-3-difluoromethyl-3,6-dihydro-2H-[1,4]oxazin-3-yl)-4-fluoro-phenyl]-amide] | 50 |

| Compound | IC50 [nM] |
| --- | --- |
| C[C@@]1(c2cc(Br)cc(NC(=O)c3ncc(Br)cn3)c2)COCC(N)=N1 [Example 51, 5-Bromo-pyrimidine-2-carboxylic acid [3-((R)-5-amino-3-methyl-3,6-dihydro-2H-[1,4]oxazin-3-yl)-5-bromo-phenyl]-amide hydrochloride] | 230 |
| C[C@@]1(c2cc(Br)cc(NC(=O)c3ccc(Br)cn3)c2)COCC(N)=N1 [Example 52, 5-Bromo-pyridine-2-carboxylic acid [3-((R)-5-amino-3-methyl-3,6-dihydro-2H-[1,4]oxazin-3-yl)-5-bromo-phenyl]-amide] | 180 |
| C[C@@]1(c2cc(Br)cc(NC(=O)c3ccc(C#N)cn3)c2)COCC(N)=N1 [Example 53, 5-Cyano-pyridine-2-carboxylic acid [3-((R)-5-amino-3-methyl-3,6-dihydro-2H-[1,4]oxazin-3-yl)-5-bromo-phenyl]-amide] | 380 |
| Cc1cc(Br)cnc1C(=O)Nc1cc(Br)cc([C@]2(C)COCC(N)=N2)c1 [Example 55, 5-Bromo-3-methyl-pyridine-2-carboxylic acid [3-((R)-5-amino-3-methyl-3,6-dihydro-2H-[1,4]oxazin-3-yl)-5-bromo-phenyl]-amide] | 84 |
| C[C@@]1(c2cc(Br)cc(NC(=O)c3ccc(Cl)cn3)c2)COCC(N)=N1 [Example 56, 5-Chloro-pyridine-2-carboxylic acid [3-((R)-5-amino-3-methyl-3,6-dihydro-2H-[1,4]oxazin-3-yl)-5-bromo-phenyl]-amide] | 101 |
| Cc1cnc(C(=O)Nc2cc(Br)cc([C@]3(C)COCC(N)=N3)c2)cn1 [Example 57, 5-Methyl-pyrazine-2-carboxylic acid [3-((R)-5-amino-3-methyl-3,6-dihydro-2H-[1,4]oxazin-3-yl)-5-bromo-phenyl]-amide] | 1700 |
| Cc1nc(C(=O)Nc2cc(Br)cc([C@]3(C)COCC(N)=N3)c2)c(C)o1 [Example 58, 2,5-Dimethyl-oxazole-4-carboxylic acid [3-((R)-5-amino-3-methyl-3,6-dihydro-2H-[1,4]oxazin-3-yl)-5-bromo-phenyl]amide] | 780 |
| Cc1nc(C(=O)Nc2cc(Br)cc([C@]3(C)COCC(N)=N3)c2)co1 [Example 59, 2-Methyl-oxazole-4-carboxylic acid [3-((R)-5-amino-3-methyl-3,6-dihydro-2H-[1,4]oxazin-3-yl)-5-bromo-phenyl]-amide] | 240 |
| Cc1cnc(C(=O)Nc2ccc(F)c(C3(C)COCC(N)=N3)c2)cn1 (centres unmarked) [Example 61, 5-Methyl-pyrazine-2-carboxylic acid [3-(5-amino-3-methyl-3,6-dihydro-2H-[1,4]oxazin-3-yl)-4-fluoro-phenyl]-amide hydrochloride] | 1970 |
| CC1(c2cc(NC(=O)c3ccc(C#N)cn3)ccc2F)COCC(N)=N1 (centres unmarked) [Example 62, 5-Cyano-pyridine-2-carboxylic acid [3-(5-amino-3-methyl-3,6-dihydro-2H-[1,4]oxazin-3-yl)-4-fluoro-phenyl]-amide hydrochloride] | 95 |
| CC1(c2cc(NC(=O)c3ccc(C(N)=O)cn3)ccc2F)COCC(N)=N1 (centres unmarked) [Example 65, Pyridine-2,5-dicarboxylic acid 5-amide 2-{[3-(5-amino-3-methyl-3,6-dihydro-2H-[1,4]oxazin-3-yl)-4-fluoro-phenyl]-amide} hydrochloride] | 1200 |
| C[C@@]1(c2cc(NC(=O)c3ccc(C#N)cn3)ccc2F)CO[C@@](C)(C(F)(F)F)C(N)=N1 [Example 73, 5-Cyano-pyridine-2-carboxylic acid [3-((3R,6R)-5-amino-3,6-dimethyl-6-trifluoro-methyl-3,6-dihydro-2H-[1,4]oxazin-3-yl)-4-fluoro-phenyl]-amide hydrochloride] | 26 |
| COCCOc1cnc(C(=O)Nc2ccc(F)c([C@]3(C)CO[C@@](C)(C(F)(F)F)C(N)=N3)c2)cn1 [Example 74, 5-(2-Methoxy-ethoxy)-pyrazine-2-carboxylic acid [3-((3R,6R)-5-amino-3,6-dimethyl-6-trifluoromethyl-3,6-dihydro-2H-[1,4]oxazin-3-yl)-4-fluoro-phenyl]-amide hydrochloride] | 79 |
| CC1(C)OC[C@](c2cc(NC(=O)c3ccc(C#N)cn3)ccc2F)(C(F)F)N=C1N [Example 79, 5-Cyano-pyridine-2-carboxylic acid[3-(5-amino-3-difluoromethyl-6,6-dimethyl-3,6-dihydro-2H-[1,4]oxazin-3-yl)-4-fluoro-phenyl]-amide] | 120 |
| CC1(C)OCC(c2cc(NC(=O)c3ccc(Br)cn3)ccc2F)(C(F)F)N=C1N (centres unmarked) [Example 80, 5-Bromo-pyridine-2-carboxylic acid [3-(5-amino-3-difluoromethyl-6,6-dimethyl-3,6-dihydro-2H-[1,4]oxazin-3-yl)-4-fluoro-phenyl]-amide hydrochloride] | 74 |
| NC1=NC(c2cc(NC(=O)c3ccc(Br)cn3)c(F)cc2F)(C(F)F)COC1 (centres unmarked) [Example 81, 5-Bromo-pyridine-2-carboxylic acid [5-(5-amino-3-difluoromethyl-3,6-dihydro-2H-[1,4]oxazin-3-yl)-2,4-difluoro-phenyl]-amide hydrochloride] | 1100 |
